pIC50: −log10 of the molar value. Read-outs that look alike come from different tables or passages of the source. *1 amine or outer side, *2 acyl side, *3 side chain or, on linkers, in order; H or OH if unused. Where a SMILES comes first, the peptide text is derived from it. Bridges are numbered along the chain shown (N, C = ends). Side-chain parts run from the residue outwards. [ ]: non-standard residue; d: D form. The star is where a group is joined. Benzoyl(4-(4-EtNHCO-PhO)) = CCNC(=O)c1ccc(Oc2ccc(C(=O)*)cc2)cc1; Benzoyl(4-O-C6H4-4-CONHMe) = CNC(=O)c1ccc(Oc2ccc(C(=O)*)cc2)cc1; Benzenesulfonyl(4-OPh) = O=S(=O)(c1ccc(Oc2ccccc2)cc1)*; X1 = O=C(Nc1ccc(S(=O)(=O)*)cc1)c1ccc(OC(F)(F)F)cc1; X11 = O=C(O)CCCCNC(=O)c1ccc(Oc2ccc(C(=O)*)cc2)cc1; X4 = NC(=O)CCCCNC(=O)c1ccc(Oc2ccc(C(=O)*)cc2)cc1; X16 = O=C(O)CCNC(=O)c1ccc(Oc2ccc(C(=O)*)cc2)cc1; X3 = O=C(Nc1ccc(S(=O)(=O)*)cc1)c1ccc(OC2CC2)cc1; X6 = NCCCCNC(=O)c1ccc(Oc2ccc(C(=O)*)cc2)cc1; Benzoyl(4-OPh) = O=C(c1ccc(Oc2ccccc2)cc1)*; d(γGlu) = O=C(O)[C@@H](CCC(=O)[*:2])N[*:1]; C16 diacid = O=C(O)CCCCCCCCCCCCCCC(=O)*; X13 = Cc1ccc(C#Cc2ccc(S(=O)(=O)*)s2)cc1; NMeGABA = CN(CCCC(=O)[*:2])[*:1]; NMeI = CC[C@H](C)[C@H](NC)C(=O)O; NMeE = CN[C@@H](CCC(=O)O)C(=O)O; NMeD = CN[C@@H](CC(=O)O)C(=O)O; NMeN = CN[C@@H](CC(N)=O)C(=O)O; NMeK = CN[C@@H](CCCCN)C(=O)O; NMeM = CN[C@@H](CCSC)C(=O)O; NMeV = CN[C@H](C(=O)O)C(C)C; β3hP = O=C(O)C[C@@H]1CCCN1; Aze = O=C(O)[C@@H]1CCN1; Dab = NCC[C@H](N)C(=O)O; Dap = NC[C@H](N)C(=O)O; AEEA = NCCOCCOCC(=O)O; Ahx = NCCCCCC(=O)O; Ava = NCCCCC(=O)O; GABA = NCCCC(=O)O; βAla = NCCC(=O)O
Molecular target: T1, MMP2 (Homo sapiens, UniProt P08253)
T1 sequence (P08253 110-660): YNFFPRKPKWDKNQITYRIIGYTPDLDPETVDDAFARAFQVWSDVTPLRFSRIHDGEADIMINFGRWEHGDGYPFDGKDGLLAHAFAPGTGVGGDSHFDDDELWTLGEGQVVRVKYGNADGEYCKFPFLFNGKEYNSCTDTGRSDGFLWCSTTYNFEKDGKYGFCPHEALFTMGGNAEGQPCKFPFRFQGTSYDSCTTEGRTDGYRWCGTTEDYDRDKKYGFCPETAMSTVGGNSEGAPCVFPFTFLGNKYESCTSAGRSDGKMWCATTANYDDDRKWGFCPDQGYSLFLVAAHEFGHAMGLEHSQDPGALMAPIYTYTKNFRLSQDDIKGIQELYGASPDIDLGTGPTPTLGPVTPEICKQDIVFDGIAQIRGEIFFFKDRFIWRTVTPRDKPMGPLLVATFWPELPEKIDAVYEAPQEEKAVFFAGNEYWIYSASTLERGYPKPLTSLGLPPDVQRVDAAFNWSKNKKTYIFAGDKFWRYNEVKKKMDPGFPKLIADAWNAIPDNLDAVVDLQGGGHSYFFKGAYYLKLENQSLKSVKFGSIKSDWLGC
Assay: Inhibitory effects on human MMP2 (Method 1), enzyme assay with MOCAc-Pro-Leu-Gly-Leu-A2pr(Dnp)-Ala-Arg-NH2 substrate, 96-well
Type: biochemical
Settings: read-out: Human MMP2, IC50
Protocol: In a reaction solution [50 mmol/L Tris-HCl (pH 7.5), 150 mmol/L NaCl, 10 mmol/L CaCl2, 0.05% Brij L23], 100 μg/mL human recombinant MMP2 enzyme and 1 mmol/L 4-Aminophenylmercuric acetate were mixed together, and reacted at 37° C. for 60 minutes. The human MMP2 activated through the reaction was poured into a 96-well microplate to reach a final concentration of 0.7 or 7 ng/mL.

[1] = Test Example No. 1-1 (Method 1, 96-well microplate)
[2] = Test Example No. 1-1 (Method 1, 96-well)

SMILES | pIC50 [1] | pIC50 [2]
CC[C@H](C)[C@@H](C(=O)N1CCC[C@H]1CC(N)=O)N(C)C(=O)[C@H](CC(C)C)NC(=O)[C@H](CCN)NC(=O)[C@H](CC(=O)O)NC(=O)[C@H](CCC(=O)O)NC(=O)CCCCNC(=O)c1ccc(Oc2ccc(C(=O)NCCCCC(N)=O)cc2)cc1 [Compound 201] ({X4-Ava}-ED[Dab]L[NMeI][β3hP]-NH2; N-terminus assumed) | 8.85 | –
CC(C)C[C@H](NC(=O)[C@H](CCN)NC(=O)CC[C@@H](NS(=O)(=O)c1ccc(NC(=O)c2ccc(OC3CC3)cc2)cc1)C(=O)O)C(=O)N(C)[C@@H](CCC(=O)O)C(=O)N1CCC[C@H]1CC(N)=O [Compound 703] ({X3-d(γGlu)}-[Dab]L[NMeE][β3hP]-NH2; N-terminus assumed) | 9.48 | –
CC[C@H](C)[C@@H](C(=O)N1CCC[C@H]1C(N)=O)N(C)C(=O)[C@H](CC(C)C)NC(=O)[C@H](C)NC(=O)[C@H](CC(=O)O)NC(=O)[C@H](CCCCN)N(C)C(=O)CCCNC(=O)c1ccc(Oc2ccccc2)cc1 [Compound 127] ({Benzoyl(4-OPh)-GABA}-[NMeK]DAL[NMeI]P-NH2; N-terminus assumed) | 9.62 | –
CC[C@H](C)[C@@H](C(=O)N1CCC[C@H]1CC(N)=O)N(C)C(=O)[C@H](CC(C)C)NC(=O)[C@H](C)NC(=O)[C@H](CC(=O)O)NC(=O)[C@H](CCCCNC(=O)COCCOCCNC(=O)COCCOCCNC(=O)CC[C@@H](NC(=O)CCCCCCCCCCCCCCC(=O)O)C(=O)O)NC(=O)CCCNS(=O)(=O)c1ccc(Oc2ccccc2)cc1 [Compound 903, (2S,5S,32R)-2-{[(2S)-1-({(2S)-1-[{(2S,3S)-1-[(2S)-2-(2-amino-2-oxoethyl)pyrrolidin-1-yl]-3-methyl-1-oxopentan-2-yl}(methyl)amino]-4-methyl-1-oxopentan-2-yl}amino)-1-oxopropan-2-yl]carbamoyl}-4,11,20,29,34-pentaoxo-5-{4-[(4-phenoxybenzene-1-sulfonyl)amino]butanamido}-13,16,22,25-tetraoxa-3,10,19,28,33-pentaazaoctatetracontane-1,32,48-tricarboxylic acid] ({Benzenesulfonyl(4-OPh)-GABA}-K([AEEA-AEEA-d(γGlu)-C16 diacid])DAL[NMeI][β3hP]-NH2) | – | 9.90
CC[C@H](C)[C@@H](C(=O)N1CCC[C@H]1C(N)=O)N(C)C(=O)[C@H](CC(C)C)NC(=O)[C@H](C)NC(=O)[C@H](CC(=O)O)NC(=O)[C@H](CC(N)=O)N(C)C(=O)CCCN(C)C(=O)c1ccc(Oc2ccccc2)cc1 [Compound 103] ({Benzoyl(4-OPh)}-[NMeGABA][NMeN]DAL[NMeI]P-NH2; N-terminus assumed) | 9.17 | –
CC[C@H](C)[C@@H](C(=O)N1CCC[C@H]1C(N)=O)N(C)C(=O)[C@H](CC(C)C)NC(=O)[C@H](CCN)NC(=O)[C@H](CC(=O)O)NC(=O)[C@H](CCSC)N(C)C(=O)CCCNC(=O)c1ccc(Oc2ccccc2)cc1 [Compound 134] ({Benzoyl(4-OPh)-GABA}-[NMeM]D[Dab]L[NMeI]P-NH2) | 8.70 | –
CC[C@H](C)[C@@H](C(=O)N1CCC[C@H]1C(N)=O)N(C)C(=O)[C@H](CC(C)C)NC(=O)[C@H](CCN)NC(=O)[C@H](CC(=O)O)NC(=O)[C@H](CC(N)=O)NC(=O)CCCNC(=O)c1ccc(Oc2ccccc2)cc1 [Compound 107] ({Benzoyl(4-OPh)-GABA}-ND[Dab]L[NMeI]P-NH2; N-terminus assumed) | 9.49 | –
CC(C)C[C@H](NC(=O)[C@H](CCN)NC(=O)[C@H](CC(=O)O)NC(=O)[C@H](CC(N)=O)NC(=O)CCCCNC(=O)c1ccc(Oc2ccc(C(=O)NCCCCN)cc2)cc1)C(=O)N(C)[C@@H](CCC(=O)O)C(=O)N1CCC[C@H]1CC(N)=O [Compound 181] ({X6-Ava}-ND[Dab]L[NMeE][β3hP]-NH2; N-terminus assumed) | 8.51 | –
CC[C@H](C)[C@@H](C(=O)N[C@@H](CC(=O)O)C(=O)N[C@@H](C)C(=O)N[C@@H](CC(C)C)C(=O)N(C)[C@H](C(=O)N1CCC[C@H]1C(N)=O)[C@@H](C)CC)N(C)C(=O)CCCNC(=O)c1ccc(Oc2ccccc2)cc1 [Compound 121] ({Benzoyl(4-OPh)-GABA}-[NMeI]DAL[NMeI]P-NH2; N-terminus assumed) | 9.72 | –
CC[C@H](C)[C@@H](C(=O)N1CCC[C@H]1CC(N)=O)N(C)C(=O)[C@H](CC(C)C)NC(=O)[C@H](CCN)NC(=O)[C@H](CC(=O)O)NC(=O)[C@H](CCCCN)NC(=O)CCCCCNC(=O)c1ccc(Oc2ccc(C(=O)NC)cc2)cc1 [Compound 187] ({Benzoyl(4-O-C6H4-4-CONHMe)-Ahx}-KD[Dab]L[NMeI][β3hP]-NH2; N-terminus assumed) | 8.55 | –
CN(C(=O)[C@@H]1CCCCNC(=O)CCNC(=O)CC[C@H](NC(=O)CCCNS(=O)(=O)c2ccc(Oc3ccccc3)cc2)C(=O)N[C@@H](CC(=O)O)C(=O)N[C@@H](CCN)C(=O)N1)[C@@H](CC(=O)O)C(=O)N1CCC[C@H]1CC(N)=O [Compound 895] ({Benzenesulfonyl(4-OPh)-GABA}-ED[Dab]K[NMeD][β3hP]-NH2; linker 1-4 via βAla (inferred); N-terminus assumed) | – | 8.89
CC[C@H](C)[C@@H](C(=O)N1CCC[C@H]1CC(N)=O)N(C)C(=O)[C@H](CC(C)C)NC(=O)[C@H](CN)NC(=O)[C@H](CC(=O)O)NC(=O)[C@@H]1CCN1C(=O)CCCNC(=O)c1ccc(Oc2ccccc2)cc1 [Compound 132] ({Benzoyl(4-OPh)-GABA}-[Aze]D[Dap]L[NMeI][β3hP]-NH2; N-terminus assumed) | 9.37 | –
CC(C)C[C@H](NC(=O)[C@H](CCN)NC(=O)CC[C@@H](NS(=O)(=O)c1ccc(NC(=O)c2ccc(OC(F)(F)F)cc2)cc1)C(=O)O)C(=O)N(C)[C@@H](CCC(=O)O)C(=O)N1CCC[C@H]1CC(N)=O [Compound 704] ({X1-d(γGlu)}-[Dab]L[NMeE][β3hP]-NH2; N-terminus assumed) | 9.38 | –
CC[C@H](C)[C@@H](C(=O)N1CCC[C@H]1CC(N)=O)N(C)C(=O)[C@H](CC(C)C)NC(=O)[C@H](CCN)NC(=O)[C@H](CC(=O)O)NC(=O)[C@@H]1CCN1C(=O)CCCNC(=O)c1ccc(Oc2ccccc2)cc1 [Compound 133] ({Benzoyl(4-OPh)-GABA}-[Aze]D[Dab]L[NMeI][β3hP]-NH2; N-terminus assumed) | 9.06 | –
CC[C@H](C)[C@@H](C(=O)N1CCC[C@H]1CC(N)=O)N(C)C(=O)[C@H](CC(C)C)NC(=O)[C@H](CCN)NC(=O)[C@H](CC(=O)O)NC(=O)[C@H](NC(=O)CCCCNS(=O)(=O)c1ccc(Oc2ccccc2)cc1)[C@H](C)O [Compound 85] ({Benzenesulfonyl(4-OPh)-Ava}-[dT]D[Dab]L[NMeI][β3hP]-NH2; N-terminus assumed) | 9.31 | –
CC(C)C[C@H](NC(=O)[C@H](CCN)NC(=O)[C@H](CC(=O)O)NC(=O)[C@H](CC(N)=O)NC(=O)CCCNC(=O)c1ccc(Oc2ccccc2)cc1)C(=O)N(C)[C@@H](CCC(=O)O)C(=O)N1CCC[C@H]1CC(N)=O [Compound 108] ({Benzoyl(4-OPh)-GABA}-ND[Dab]L[NMeE][β3hP]-NH2) | 9.72 | –
CC(C)C[C@H](NC(=O)[C@H](CCN)NC(=O)[C@H](CC(=O)O)NC(=O)[C@H](CC(N)=O)NC(=O)CCCCNC(=O)c1ccc(Oc2ccc(C(=O)NCCC(=O)O)cc2)cc1)C(=O)N(C)[C@@H](CCC(=O)O)C(=O)N1CCC[C@H]1CC(N)=O [Compound 183] ({X16-Ava}-ND[Dab]L[NMeE][β3hP]-NH2; N-terminus assumed) | 8.15 | –
Cc1ccc(C#Cc2ccc(S(=O)(=O)NCCC(=O)N[C@@H](CC(N)=O)C(=O)N[C@@H](CC(=O)O)C(=O)N[C@@H](C)C(=O)N[C@@H](CC(C)C)C(=O)N(C)[C@H](C(=O)N3CCC[C@H]3C(N)=O)C(C)C)s2)cc1 [Compound 589] ({X13-βAla}-NDAL[NMeV]P-NH2; N-terminus assumed) | 9.92 | –
CCNC(=O)c1ccc(Oc2ccc(C(=O)NCCCCC(=O)N[C@@H](CCCCN)C(=O)N[C@@H](CC(=O)O)C(=O)N[C@@H](CCN)C(=O)N[C@@H](CC(C)C)C(=O)N(C)[C@@H](CCC(=O)O)C(=O)N3CCC[C@H]3CC(N)=O)cc2)cc1 [Compound 192] ({Benzoyl(4-(4-EtNHCO-PhO))-Ava}-KD[Dab]L[NMeE][β3hP]-NH2; N-terminus assumed) | 8.72 | –
CC[C@H](C)[C@@H](C(=O)N1CCC[C@H]1CC(=O)O)N(C)C(=O)[C@@H]1CCCCNC(=O)CNC(=O)CC[C@H](NC(=O)CCCNS(=O)(=O)c2ccc(Oc3ccccc3)cc2)C(=O)N[C@@H](CC(=O)O)C(=O)N[C@@H](C)C(=O)N1 [Compound 891] ({Benzenesulfonyl(4-OPh)-GABA}-EDAK[NMeI][β3hP]-OH; linker 1-4 via G) | – | 8.80
CC[C@H](C)[C@@H](C(=O)N1CCC[C@H]1CC(N)=O)N(C)C(=O)[C@H](CC(C)C)NC(=O)[C@H](CCN)NC(=O)[C@H](CC(=O)O)NC(=O)[C@H](CCC(=O)O)NC(=O)CCCCNC(=O)c1ccc(Oc2ccc(C(=O)NCCCCC(=O)O)cc2)cc1 [Compound 200] ({X11-Ava}-ED[Dab]L[NMeI][β3hP]-NH2; N-terminus assumed) | 8.13 | –

— patent US20240199692A1 (priority 2019, published 2024)
